# Test results as given in ChEMBL document CHEMBL4138123, “Design, synthesis and biological evaluation of novel pyrazolochalcones as potential modulators of PI3K/Akt/mTOR pathway and inducers of apoptosis in breast cancer cells” (Eur J Med Chem, 2017).
# What was measured:
# Format in all cases: functional
# TK-10 [1] = assay: Cytotoxicity against human TK10 cells assessed as growth inhibition after 48 hrs by sulforhodamine B assay; conditions: TK-10, 48 h
# HCT-15 [2] = assay: Cytotoxicity against human HCT15 cells assessed as growth inhibition after 48 hrs by sulforhodamine B assay; conditions: HCT-15, 48 h
# Hs-578T [3] = assay: Cytotoxicity against human Hs 578T cells assessed as cell growth at 0.1 uM after 48 hrs by sulforhodamine B assay relative to control; conditions: read-out: Activity
# NCI-H460 = assay: Cytotoxicity against human NCI-H460 cells assessed as cell growth at 1 uM after 48 hrs by sulforhodamine B assay relative to control; conditions: NCI-H460, 48 h, read-out: Activity
# SNB-19 [4] = assay: Cytotoxicity against human SNB19 cells assessed as cell growth at 100 uM after 48 hrs by sulforhodamine B assay relative to control; conditions: SNB-19, 48 h, read-out: Activity
# A498 = assay: Cytotoxicity against human A498 cells assessed as cell growth at 1 uM after 48 hrs by sulforhodamine B assay relative to control; conditions: A498, 48 h, read-out: Activity
# NCI-H226 = assay: Cytotoxicity against human NCI-H226 cells assessed as growth inhibition after 48 hrs by sulforhodamine B assay; conditions: NCI-H226, 48 h
# HCT-116 [5] = assay: Cytotoxicity against human HCT116 cells assessed as growth inhibition after 48 hrs by sulforhodamine B assay; conditions: HCT-116, 48 h
# UACC-62 = assay: Cytotoxicity against human UACC62 cells assessed as cell growth at 1 uM after 48 hrs by sulforhodamine B assay relative to control; conditions: UACC-62, 48 h, read-out: Activity
# HCT-116 [6] = assay: Cytotoxicity against human HCT116 cells assessed as cell growth at 0.1 uM after 48 hrs by sulforhodamine B assay relative to control; conditions: HCT-116, 48 h, read-out: Activity
# Hs-578T [7] = assay: Cytotoxicity against human Hs 578T cells assessed as cell growth at 100 uM after 48 hrs by sulforhodamine B assay relative to control; conditions: read-out: Activity
# NCI/ADR-RES [8] = assay: Cytotoxicity against human NCI/ADR-RES cells assessed as cell growth at 100 uM after 48 hrs by sulforhodamine B assay relative to control; conditions: read-out: Activity
# MCF7 = assay: Cytotoxicity against human MCF7 cells assessed as cell growth at 1 uM after 48 hrs by sulforhodamine B assay relative to control; conditions: MCF7, 48 h, read-out: Activity
# A549 = assay: Cytotoxicity against human A549/ATCC cells assessed as growth inhibition after 48 hrs by sulforhodamine B assay; conditions: A549, 48 h
# SW-620 = assay: Cytotoxicity against human SW620 cells assessed as growth inhibition after 48 hrs by sulforhodamine B assay; conditions: SW-620, 48 h
# HOP-62 = assay: Cytotoxicity against human HOP62 cells assessed as cell growth at 1 uM after 48 hrs by sulforhodamine B assay relative to control; conditions: HOP-62, 48 h, read-out: Activity
# SK-MEL-28 = assay: Cytotoxicity against human SK-MEL-28 cells assessed as cell growth at 10 uM after 48 hrs by sulforhodamine B assay relative to control; conditions: SK-MEL-28, 48 h, read-out: Activity
# HCT-15 [9] = assay: Cytotoxicity against human HCT15 cells assessed as cell growth at 0.01 uM after 48 hrs by sulforhodamine B assay relative to control; conditions: HCT-15, 48 h, read-out: Activity
# NCI-H522 = assay: Cytotoxicity against human NCI-H522 cells assessed as growth inhibition after 48 hrs by sulforhodamine B assay; conditions: NCI-H522, 48 h
# SNB-19 [10] = assay: Cytotoxicity against human SNB19 cells assessed as cell growth at 0.1 uM after 48 hrs by sulforhodamine B assay relative to control; conditions: SNB-19, 48 h, read-out: Activity
# KM12 = assay: Cytotoxicity against human KM12 cells assessed as cell growth at 10 uM after 48 hrs by sulforhodamine B assay relative to control; conditions: KM12, 48 h, read-out: Activity
# TK-10 [11] = assay: Cytotoxicity against human TK10 cells assessed as cell growth at 1 uM after 48 hrs by sulforhodamine B assay relative to control; conditions: TK-10, 48 h, read-out: Activity
# SK-OV-3 = assay: Cytotoxicity against human SKOV3 cells assessed as cell growth at 0.1 uM after 48 hrs by sulforhodamine B assay relative to control; conditions: SK-OV-3, 48 h, read-out: Activity
# SR = assay: Cytotoxicity against human SR cells assessed as cell growth at 10 uM after 48 hrs by sulforhodamine B assay relative to control; conditions: read-out: Activity
# NCI/ADR-RES [12] = assay: Cytotoxicity against human NCI/ADR-RES cells assessed as cell growth at 0.1 uM after 48 hrs by sulforhodamine B assay relative to control; conditions: read-out: Activity
# 786-0 = assay: Cytotoxicity against human 786-0 cells assessed as cell growth at 10 uM after 48 hrs by sulforhodamine B assay relative to control; conditions: 786-0, 48 h, read-out: Activity
# MDA-MB-231 = assay: Cytotoxicity against human MDA-MB-231 cells assessed as cell growth at 0.1 uM after 48 hrs by sulforhodamine B assay relative to control; conditions: MDA-MB-231, 48 h, read-out: Activity
# OVCAR-4 = assay: Cytotoxicity against human OVCAR4 cells assessed as growth inhibition after 48 hrs by sulforhodamine B assay; conditions: OVCAR-4, 48 h
# NCI-H23 = assay: Cytotoxicity against human NCI-H23 cells assessed as cell growth at 0.01 uM after 48 hrs by sulforhodamine B assay relative to control; conditions: NCI-H23, 48 h, read-out: Activity
# SF-268 = assay: Cytotoxicity against human SF268 cells assessed as growth inhibition after 48 hrs by sulforhodamine B assay; conditions: SF-268, 48 h
# CCRF-CEM = assay: Cytotoxicity against human CCRF-CEM cells assessed as growth inhibition after 48 hrs by sulforhodamine B assay
# MDA-MB-468 = assay: Cytotoxicity against human MDA-MB-468 cells assessed as cell growth at 100 uM after 48 hrs by sulforhodamine B assay relative to control; conditions: MDA-MB-468, 48 h, read-out: Activity
# DU-145 = assay: Cytotoxicity against human DU145 cells assessed as growth inhibition after 48 hrs by sulforhodamine B assay; conditions: DU-145, 48 h
smiles,measurement,setting,value
COc1cc(-c2cc(/C=C/C(=O)c3ccc(F)c(F)c3)[nH]n2)cc(OC)c1OC,LC50,TK-10 [1],> 100 µM
same,TGI,TK-10 [1],7.42 µM
same,LC50,HCT-15 [2],> 100 µM
same,TGI,HCT-15 [2],> 100 µM
same,growth at 0.1 µM,Hs-578T [3],97%
same,growth at 1 µM,NCI-H460,103%
same,growth at 100 µM,SNB-19 [4],22%
same,growth at 1 µM,A498,81%
same,LC50 (concentration killing 50% of cells),NCI-H226,66 µM
same,TGI,NCI-H226,15.8 µM
same,LC50,HCT-116 [5],94.2 µM
same,TGI,HCT-116 [5],13.9 µM
same,growth at 1 µM,UACC-62,88%
same,growth at 0.1 µM,HCT-116 [6],102%
same,growth at 100 µM,Hs-578T [7],-16%
same,growth at 100 µM,NCI/ADR-RES [8],-5%
same,growth at 1 µM,MCF7,99%
same,LC50 (concentration giving 50% net cell kill),A549,> 100 µM
same,TGI,A549,9.9 µM
same,"LC50 (lethal concentration, 50% net cell kill)",SW-620,> 100 µM
same,TGI,SW-620,> 100 µM
same,growth at 1 µM,HOP-62,94%
same,growth at 10 µM,SK-MEL-28,32%
same,growth at 0.01 µM,HCT-15 [9],97%
same,LC50,NCI-H522,65.2 µM
same,TGI,NCI-H522,4.48 µM
same,growth at 0.1 µM,SNB-19 [10],87%
same,growth at 10 µM,KM12,3%
same,growth at 1 µM,TK-10 [11],85%
same,growth at 0.1 µM,SK-OV-3,99%
same,growth at 10 µM,SR,11%
same,growth at 0.1 µM,NCI/ADR-RES [12],98%
same,growth at 10 µM,786-0,11%
same,growth at 0.1 µM,MDA-MB-231,96%
same,LC50,OVCAR-4,> 100 µM
same,TGI,OVCAR-4,71.8 µM
same,growth at 0.01 µM,NCI-H23,95%
same,TGI,SF-268,> 100 µM
same,CC50,SF-268; read-out: LC50 (the source's name),> 100 µM
same,LC50 (concentration killing 50% of cells),CCRF-CEM,> 100 µM
same,TGI,CCRF-CEM,47.2 µM
same,growth at 100 µM,MDA-MB-468,-26%
COc1ccc(-c2cc(/C=C/C(=O)c3ccc4c(c3)OCO4)[nH]n2)cc1OC,GI50,TK-10 [1],1500 nM
same,GI50,HCT-15 [2],1090 nM
same,GI50,NCI-H226,1660 nM
same,GI50,HCT-116 [5],360 nM
same,GI50,A549,2250 nM
same,GI50,SW-620,1500 nM
same,GI50,NCI-H522,1690 nM
same,GI50,DU-145,1640 nM
same,GI50,OVCAR-4,1920 nM
same,GI50,SF-268,2090 nM
same,GI50,CCRF-CEM,360 nM
